Legend:
[1] = target: cytochrome bd-II oxidase subunit AppB (Escherichia coli, UniProt P26458)
[2] = target: cytochrome bd-II oxidase subunit AppC (Escherichia coli, UniProt P26459, D239N); assay: biochemical
[3] = target: T1, cytochrome bd-II oxidase subunit AppC (Escherichia coli, UniProt P26459); assay: duroquinol:O2 oxidoreductase inhibition (Clark electrode); assay type: biochemical
T1 construct: bd-II oxidase (AppC, AppB, AppX), C-terminal His-tag on AppC; with AppB, AppX

[4] = target: T1, cytochrome bd-II oxidase subunit AppC; assay: duroquinol:O2 oxidoreductase activity of isolated bd-II, Clark-type oxygen electrode; assay type: biochemical

T1 sequence (P24244 whole entry): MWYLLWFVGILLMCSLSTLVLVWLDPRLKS
T1 sequence (P26458 whole entry, further chain): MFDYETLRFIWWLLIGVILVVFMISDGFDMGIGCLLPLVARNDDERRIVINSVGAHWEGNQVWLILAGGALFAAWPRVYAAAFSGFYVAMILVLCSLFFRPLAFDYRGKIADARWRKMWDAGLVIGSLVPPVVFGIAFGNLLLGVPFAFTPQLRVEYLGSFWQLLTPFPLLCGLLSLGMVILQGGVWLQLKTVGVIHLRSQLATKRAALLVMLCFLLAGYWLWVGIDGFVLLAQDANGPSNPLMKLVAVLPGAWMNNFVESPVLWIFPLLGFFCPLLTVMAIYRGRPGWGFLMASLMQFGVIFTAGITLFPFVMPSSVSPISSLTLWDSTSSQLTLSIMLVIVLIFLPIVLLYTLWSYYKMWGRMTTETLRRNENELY
T1 sequence (P26459 whole entry): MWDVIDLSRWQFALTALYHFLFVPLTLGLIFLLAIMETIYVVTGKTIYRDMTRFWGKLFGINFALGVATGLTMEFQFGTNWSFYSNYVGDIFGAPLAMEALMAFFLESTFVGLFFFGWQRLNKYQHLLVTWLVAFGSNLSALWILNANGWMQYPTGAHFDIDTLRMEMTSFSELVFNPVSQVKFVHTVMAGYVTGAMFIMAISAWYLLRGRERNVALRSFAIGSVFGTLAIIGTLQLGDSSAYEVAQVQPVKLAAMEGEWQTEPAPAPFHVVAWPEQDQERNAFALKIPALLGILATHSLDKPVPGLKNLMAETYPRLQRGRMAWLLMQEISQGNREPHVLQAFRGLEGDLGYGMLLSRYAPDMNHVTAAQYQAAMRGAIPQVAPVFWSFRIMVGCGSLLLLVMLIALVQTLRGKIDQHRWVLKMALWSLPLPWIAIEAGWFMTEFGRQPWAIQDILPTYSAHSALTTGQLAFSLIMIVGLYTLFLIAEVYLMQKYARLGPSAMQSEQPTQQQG
Sequence of cytochrome bd-II oxidase subunit AppC (Escherichia coli, UniProt P26459, D239N) (P26459 whole entry, stated change not applied): as the sequence (P26459 whole entry) above
Sequence of cytochrome bd-II oxidase subunit AppC (Escherichia coli, UniProt P26459, D239N) (P24244 whole entry, further chain): as the sequence (P24244 whole entry) above
Sequence of cytochrome bd-II oxidase subunit AppC (Escherichia coli, UniProt P26459, D239N) (P26458 whole entry, further chain): as the sequence (P26458 whole entry, further chain) above
Sequence of cytochrome bd-II oxidase subunit AppB (P26458 whole entry): as the sequence (P26458 whole entry, further chain) above
Sequence of cytochrome bd-II oxidase subunit AppB (P26459 whole entry partner): as the sequence (P26459 whole entry) above
Sequence of cytochrome bd-II oxidase subunit AppB (P24244 whole entry partner): as the sequence (P24244 whole entry) above

## COC1=C(OC)C(=O)C(C/C=C(\C)CC/C=C(\C)CC/C=C(\C)CC/C=C(\C)CC/C=C(\C)CC/C=C(\C)CC/C=C(\C)CCC=C(C)C)=C(C)C1=O [ubiquinone-8]
[1]
  cryo-EM structure at 3.0 Å: cleft towards the periplasmic space filled with an extended electron density that was perfectly fitted as ubiquinone-8

## CC(C)=CCC/C(C)=C/CC/C(C)=C\Cc1c(C)[nH]c2ccccc2c1=O [aurachin D]
[2]
  IC50: 60.7 nM
[3]
  IC50: 11.1 nM

## CC(C)=CCC/C(C)=C/CC/C(C)=C/Cc1c(C)n(O)c2ccccc2c1=O [aurachin C]
[4]
  IC50: 7.1 nM

— PMC8585947, “Structure of Escherichia coli cytochrome bd-II type oxidase with bound aurachin D” (Nature Communications, 2021)
